From patent publication US12599672B2, “KRAS proteolysis targeting chimeras” (PAQ Therapeutics Inc., priority 2023, dated 2026)

How the values were obtained:
Format in all cases: cell-based
KRAS G12D = target: T1, KRAS G12D (Homo sapiens, UniProt P01116, G12D); experiment: KRAS G12D HiBit assay; details: AsPc-1-KRAS (G12D)-HiBit-KI cell, compound treatment for 24 hours; for DC50: absolute DC50
T1 construct: AsPc-1-KRAS (G12D)-HiBit-KI cell (Pharmaron); host or cells: AsPc-1-KRAS (G12D)-HiBit-KI cells (HiBiT knock-in at the endogenous KRAS locus)
Procedure, shortened: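 HiBiT luminescence, detected by adding lytic buffer, substrate and LgBiT protein, served as the KRAS G12D read-out. Compounds, serially diluted 3-fold over 10 points from 0.3 mM DMSO stock, were on cells for 24 h; percent inhibition normalized to cells given 0.1% DMSO only.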

KRAS G12V = target: T2, KRAS G12V (Homo sapiens, UniProt P01116, G12V); experiment: KRAS G12V HiBit assay; details: SW620-KRAS (G12V)-HiBit-KI cells, compound treatment for 24 hours
T2 construct: SW620-KRAS (G12V)-HiBit-KI cell (Pharmaron); host or cells: SW620-KRAS (G12V)-HiBit-KI cells (HiBiT knock-in at the endogenous KRAS locus)
Procedure, shortened: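 Luminescence from lytic Nano-Glo HiBiT detection with LgBiT read KRAS G12V levels after 24 h compound exposure. Dilutions were 10-point, 3-fold, from a 0.3 mM DMSO stock. Degradation activity was normalised to cells given 0.1% DMSO alone.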

KRAS = target: T3, KRAS (Homo sapiens, UniProt P01116); experiment: KRASamp MSD assay; details: KE39 (KRAS amplified) cells, treated with test compounds for 24 hr, MSD readout of KRAS degradation
T3 construct: endogenous in cells; host or cells: KE39 (KRAS amplified) cells
Procedure, shortened: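 Degradation DC50 derived by curve fitting, with KRAS levels quantified by MSD electrochemiluminescence (capture/detection antibodies, recombinant WT KRAS standard). Lysates prepared from KE39 cells (KRAS amplified) exposed to test compounds for 24 hr.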

[1] = numeric bounds given in place of class symbols

T3 sequence (P01116 1-188 isoform P01116-2): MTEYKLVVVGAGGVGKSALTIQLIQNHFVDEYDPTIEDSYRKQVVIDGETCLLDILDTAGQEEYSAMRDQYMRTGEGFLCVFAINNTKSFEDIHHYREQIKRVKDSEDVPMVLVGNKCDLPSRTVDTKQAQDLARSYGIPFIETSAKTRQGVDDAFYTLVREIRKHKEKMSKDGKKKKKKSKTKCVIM
T1 sequence (P01116 1-188 isoform P01116-2 G12D): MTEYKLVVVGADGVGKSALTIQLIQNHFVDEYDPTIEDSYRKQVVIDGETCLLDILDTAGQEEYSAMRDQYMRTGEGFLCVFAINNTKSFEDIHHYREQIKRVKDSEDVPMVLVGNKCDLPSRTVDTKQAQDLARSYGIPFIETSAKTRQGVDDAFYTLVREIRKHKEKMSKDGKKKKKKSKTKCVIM
T2 sequence (P01116 1-188 isoform P01116-2 G12V): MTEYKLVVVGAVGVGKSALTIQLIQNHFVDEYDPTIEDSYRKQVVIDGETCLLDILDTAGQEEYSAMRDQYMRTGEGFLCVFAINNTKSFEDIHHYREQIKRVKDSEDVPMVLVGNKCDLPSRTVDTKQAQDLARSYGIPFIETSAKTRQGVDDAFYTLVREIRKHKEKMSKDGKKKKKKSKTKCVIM

| Compound | DC50 (KRAS G12D; class symbols) [nM] | DC50 (KRAS G12V; class symbols) [nM] | DC50 (KRAS) [nM] | Dmax (KRAS G12D; class symbols) [%] | DC50 (KRAS G12D; [1]) [nM] | DC50 (KRAS G12V; numeric bounds) [nM] |
| --- | --- | --- | --- | --- | --- | --- |
| C#Cc1c(F)ccc2cc(O)cc(-c3ncc4c(N5CCC[C@@](C)(O)C5)nc(OC[C@@]56CCCN5[C@H](COC(=O)N5CC7(CCC(N8CCC(c9ccc%10c(c9)n(C)c(=O)n%10C9CCC(=O)NC9=O)CC8)CC7)C5)CC6)nc4c3F)c12 (stereo partly drawn) [Compound 420, ((3S,7aS)-7a-(((7-(8-ethynyl-7-fluoro-3-hydroxynaphthalen-1-yl)-8-fluoro-4-((R)-3-hydroxy-3-methylpiperidin-1-yl)pyrido[4,3-d]pyrimidin-2-yl)oxy)methyl)hexahydro-1H-pyrrolizin-3-yl)methyl 7-(4-(1-(2,6-dioxopiperidin-3-yl)-3-methyl-2-oxo-2,3-dihydro-1H-benzo[d]imidazol-5-yl)piperidin-1-yl)-2-azaspiro[3.5]nonane-2-carboxylate] | < 100 | 10 to 100 | 1 to 10 |  |  |  |
| C#Cc1c(F)ccc2cc(O)cc(-c3ncc4c(N5CCC[C@@](C)(O)C5)nc(OCC5(CN6CCN(CC7CCN(c8ccc9c(c8)C(=O)N(C8CCC(=O)NC8=O)C9=O)CC7)CC6)CC5)nc4c3F)c12 (some centres unmarked) [Compound 50] | < 100 | < 10 | 1 to 10 |  |  |  |
| C#Cc1c(F)ccc2cc(O)cc(-c3ncc4c(N5CCCC(F)(F)C5)nc(OC[C@@]56CCCN5[C@H](COC(=O)N5CCC(CN7CCC(c8ccc9c(c8)n(C)c(=O)n9C8CCC(=O)NC8=O)CC7)CC5)CC6)nc4c3F)c12 (stereo partly drawn) [Compound 124, ((35,7aS)-7a-(((4-(3,3-Difluoropiperidin-1-yl)-7-(8-ethynyl-7-fluoro-3-hydroxynaphthalen-1-yl)-8-fluoropyrido[4,3-d]pyrimidin-2-yl)oxy)methyl)hexahydro-1H-pyrrolizin-3-yl)methyl4-((4-(1-(2,6-dioxopiperidin-3-yl)-3-methyl-2-oxo-2,3-dihydro-1H-benzo[d]imidazol-5-yl)piperidin-1-yl)methyl) piperidine-1-carboxylate] | < 100 | < 10 | < 1 | > 50 |  |  |
| C#Cc1c(F)ccc2cc(O)cc(-c3ncc4c(N5CCC[C@@](C)(O)C5)nc(OC[C@@]56CCCN5[C@H](COC(=O)N5CCC(CN7CCC(c8cc9c(cc8F)n(C8CCC(=O)NC8=O)c(=O)n9C)CC7)CC5)CC6)nc4c3F)c12 (stereo partly drawn) [Compound 407, ((3S,7aS)-7a-(((7-(8-ethynyl-7-fluoro-3-hydroxynaphthalen-1-yl)-8-fluoro-4-((R)-3-hydroxy-3-methylpiperidin-1-yl)pyrido[4,3-d]pyrimidin-2-yl)oxy)methyl)hexahydro-1H-pyrrolizin-3-yl)methyl 4-((4-(1-(2,6-dioxopiperidin-3-yl)-6-fluoro-3-methyl-2-oxo-2,3-dihydro-1H-benzo[d]imidazol-5-yl)piperidin-1-yl)methyl)piperidine-1-carboxylate] | < 100 | < 10 | < 1 |  |  |  |
| CCc1c(F)ccc2cc(O)cc(-c3ncc4c(N5CCC[C@@](C)(O)C5)nc(OC[C@@]56CCCN5[C@@H](COC(=O)N5CCC(CCCCOc7ccc8c(c7)n(C)c(=O)n8C7CCC(=O)NC7=O)CC5)CC6)nc4c3F)c12 (stereo partly drawn) [Compound 317, ((3R,7aS)-7a-(((7-(8-ethyl-7-fluoro-3-hydroxynaphthalen-1-yl)-8-fluoro-4-((R)-3-hydroxy-3-methylpiperidin-1-yl)pyrido[4,3-d]pyrimidin-2-yl)oxy)methyl)hexahydro-1H-pyrrolizin-3-yl)methyl 4-(4-((1-(2,6-dioxopiperidin-3-yl)-3-methyl-2-oxo-2,3-dihydro-1H-benzo[d]imidazol-5-yl)oxy)butyl)piperidine-1-carboxylate] | < 100 | > 100 | ≥ 10 |  |  |  |
| C#Cc1c(F)ccc2cc(O)cc(-c3ncc4c(N5CCC[C@@](C)(O)C5)nc(OCC5(CN6CCC7(CC6)CC(N6CCC(c8cccc9c(C%10CCC(=O)NC%10=O)nn(C)c89)CC6)C7)CC5)nc4c3F)c12 (some centres unmarked) [Compound 69] | < 100 | < 10 | < 1 |  |  |  |
| CCc1c(F)ccc2cc(O)cc(-c3ncc4c(N5CCC(F)(F)CC5)nc(OC[C@@]56CCCN5[C@H](COC(=O)N5CCC7(CC5)CC(N5CCC(c8ccc9c(c8)n(C)c(=O)n9C8CCC(=O)NC8=O)CC5)C7)CC6)nc4c3F)c12 (stereo partly drawn) [Compound 357, ((3S,7aS)-7a-(((4-(4,4-difluoropiperidin-1-yl)-7-(8-ethyl-7-fluoro-3-hydroxynaphthalen-1-yl)-8-fluoropyrido[4,3-d]pyrimidin-2-yl)oxy)methyl)hexahydro-1H-pyrrolizin-3-yl)methyl 2-(4-(1-(2,6-dioxopiperidin-3-yl)-3-methyl-2-oxo-2,3-dihydro-1H-benzo[d]imidazol-5-yl)piperidin-1-yl)-7-azaspiro[3.5]nonane-7-carboxylate] |  | > 100 | 1 to 10 |  | > 100 |  |
| CCc1c(F)ccc2cc(O)cc(-c3ncc4c(N5CCC[C@@](C)(O)C5)nc(OC[C@@]56CCCN5[C@H](COC(=O)N5CCC(CC7CCN(c8ccc9c(c8)n(C)c(=O)n9C8CCC(=O)NC8=O)CC7)CC5)CC6)nc4c3F)c12 (stereo partly drawn) [Compound 98, [(3S,8S)-8-[[7-(8-ethyl-7-fluoro-3-hydroxy-1-naphthyl)-8-fluoro-4-[(3R)-3-hydroxy-3-methyl-1-piperidyl]pyrido[4,3-d]pyrimidin-2-yl]oxymethyl]-1,2,3,5,6,7-hexahydropyrrolizin-3-yl]methyl 4-[[1-[1-(2,6-dioxo-3-piperidyl)-3-methyl-2-oxo-benzimidazol-5-yl]-4-piperidyl]methyl]piperidine-1-carboxylate] | < 100 | < 10 | < 1 | > 50 |  |  |
| CCc1c(F)ccc2cc(O)cc(-c3ncc4c(N5CCC[C@@](C)(O)C5)nc(OC[C@@]56CCCN5[C@H](COC(=O)N5CCC(OC7CCN(c8ccc9c(c8)n(C)c(=O)n9C8CCC(=O)NC8=O)CC7)CC5)CC6)nc4c3F)c12 (stereo partly drawn) [Compound 160, ((3S,7aS)-7a-(((7-(8-Ethyl-7-fluoro-3-hydroxynaphthalen-1-yl)-8-fluoro-4-((R)-3-hydroxyl-3-methylpiperidin-1-yl)pyrido[4,3-d]pyrimidin-2-yl)oxy)methyl)hexahydro-1H-pyrrolizin-3-yl)methyl 4-((1-(1-(2,6-dioxopiperidin-3-yl)-3-methyl-2-oxo-2,3-dihydro-1H-benzo[d]imidazol-5-yl)piperidin-4-yl)oxy)piperidine-1-carboxylate] | < 100 | < 10 | < 1 |  |  |  |
| CCc1c(F)ccc2cc(O)cc(-c3ncc4c(N5CCC[C@@](C)(O)C5)nc(OC[C@@]56CCCN5[C@H](COC(=O)N5CCC(C)(CN7CCC(c8ccc9c(c8)n(C)c(=O)n9C8CCC(=O)NC8=O)CC7)CC5)CC6)nc4c3F)c12 (stereo partly drawn) [Compound 157, ((3S,7aS)-7a-(((7-(8-Ethyl-7-fluoro-3-hydroxynaphthalen-1-yl)-8-fluoro-4-((R)-3-hydroxy-3-methylpiperidin-1-yl)pyrido[4,3-d]pyrimidin-2-yl)oxy)methyl)hexahydro-1H-pyrrolizin-3-yl)methyl 4-((4-(1-(2,6-dioxopiperidin-3-yl)-3-methyl-2-oxo-2,3-dihydro-1H-benzo[d]imidazol-5-yl)piperidin-1-yl)methyl)-4-methylpiperidine-1-carboxylate] |  | < 10 | < 1 |  | > 100 |  |
| C#Cc1c(F)ccc2cc(O)cc(-c3ncc4c(N5CCC[C@@](C)(O)C5)nc(OC[C@@]56CCCN5[C@H](COC(=O)N5CCC7(CC5)CC(N5CCC(c8ccc9c(c8)n(C)c(=O)n9C8CCC(=O)NC8=O)CC5)C7)CC6)nc4c3F)c12 (stereo partly drawn) [Compound 158, ((3S,7aS)-7a-(((7-(8-Ethynyl-7-fluoro-3-hydroxynaphthalen-1-yl)-8-fluoro-4-((R)-3-hydroxy-3-methylpiperidin-1-yl)pyrido[4,3-d]pyrimidin-2-yl)oxy)methyl)hexahydro-1H-pyrrolizin-3-yl)methyl-2-(4-(1-(2,6-dioxopiperidin-3-yl)-3-methyl-2-oxo-2,3-dihydro-1H-benzo[d]imidazol-5-yl)piperidin-1-yl)-7-azaspiro[3.5]nonane-7-carboxylate] | < 100 | < 10 | < 1 |  |  |  |
| C#Cc1c(F)ccc2cc(O)cc(-c3ncc4c(N5CCC[C@@](C)(O)C5)nc(OC[C@@]56CCCN5[C@@H](COC(=O)N5CCC(CN7CCC(c8ccc9c(c8)n(C)c(=O)n9C8CCC(=O)NC8=O)CC7)CC5)CC6)nc4c3F)c12 (some centres unmarked) [Compound 140] | < 100 |  | < 1 |  |  | > 38.9 |
